The record followed here is article PMC10999986, “Substrate specificity of a ketosynthase domain involved in bacillaene biosynthesis” (Beilstein Journal of Organic Chemistry, 2024).

Structures are written as SMILES.

Assay [1] deals with T1, BaeJ-KS2 (Bacillus amyloliquefaciens, UniProt Q1RS73).
T1 construct: excised second ketosynthase domain (KS2, module 4) of BaeJ, His-tagged, heterologously expressed, Ni-NTA purified
Briefly: […] NMR of protein after incubation and ultrafiltration buffer exchange. It is filed as binding. Conditions: 25 °C, 30 min; labelled compound; active-site Cys replaced.

Assay [2] has as its target T1, BaeJ-KS2. Briefly: […] NMR of protein after incubation and ultrafiltration buffer exchange; proteinase K digest. The conditions noted are these: 25 °C, 30 min; labelled compound; covalent binding to active-site Cys proposed.

T1 sequence (Q1RS73 entry or part of it): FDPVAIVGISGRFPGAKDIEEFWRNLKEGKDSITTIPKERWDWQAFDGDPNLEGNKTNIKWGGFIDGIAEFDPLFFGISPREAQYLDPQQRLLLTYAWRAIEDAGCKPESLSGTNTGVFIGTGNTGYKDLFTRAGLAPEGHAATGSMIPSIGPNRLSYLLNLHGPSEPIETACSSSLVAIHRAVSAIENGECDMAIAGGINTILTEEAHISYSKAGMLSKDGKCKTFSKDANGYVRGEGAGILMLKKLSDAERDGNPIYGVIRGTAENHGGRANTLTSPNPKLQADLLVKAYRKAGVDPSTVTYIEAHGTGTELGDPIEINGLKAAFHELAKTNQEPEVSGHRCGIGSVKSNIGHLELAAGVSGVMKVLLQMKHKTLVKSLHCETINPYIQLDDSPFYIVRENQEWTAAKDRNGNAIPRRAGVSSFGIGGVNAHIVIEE

In the case of `CC(=O)NCCSC(=O)CCCNC(=O)[C@H](O)CC(C)C` [(R)-11], the “thioester carbonyl 13C NMR signal” value on BaeJ-KS2 [1] was “(R)-11 is not bound to BaeJ-KS2-C222A after incubation and buffer exchange”. Further, on BaeJ-KS2 [2], the “13C NMR of protein after incubation and ultrafiltration buffer exchange; protein” value is listed as “This observation supports binding of both substrate surrogates to BaeJ-KS2”.

Consider `CC(=O)NCCSC(=O)CCCNC(=O)[C@@H](O)CC(C)C` [(S)-11], for which the “thioester carbonyl 13C NMR signal” value at BaeJ-KS2 [1] is reported as “No signal corresponding to a thioester carbonyl group was detected in the protein preparations”. Besides, on BaeJ-KS2 [2], the “13C NMR of protein after incubation and ultrafiltration buffer exchange; protein” value is “for both samples obtained from the incubations with (S)-11 and (R)-11 signals were detected”.
